What was measured:
MES-induced seizures [1] = experiment: Maximal electroshock (MES) seizure test, mice (ASP, methylcellulose suspension); format: in vivo; settings: Mus musculus, ip; mice, i.p., methylcellulose suspension, time of peak effect (SKA-19: 2 h); read-out: ED50, seizure protection in the MES test
Procedure: (§1) SKA-19 was tested under the auspices of the National Institutes of Health's Anticonvulsant Screening Program (ASP). Experiments were performed in male albino CF (Carworth Farms) No. 1 mice or Sprague-Dawley rats according to the established protocols of the ASP (White et al., 2002). SKA-19 was suspended in 0.5% methylcellulose and administered in a volume that permits accuracy of dosage without excessively contributing to total body fluid (0.01 ml/g body weight for mice and 0.04 ml/10 g body weight for rats).
(§2) Animals received an electrical stimulus of 0.2 s duration (50 mA in mice and 150 mA in rat at 60 Hz) delivered via corneal electrodes primed with an electrolyte solution containing 0.5% tetracaine. Animals were restrained by hand and released immediately after stimulation to permit observation of the seizure throughout its entire course. In the initial screens to identify anticonvulsant activity mice were tested at 30 minutes and 4 hours following doses of 3, 10, 30, 100 and 300 mg/kg of SKA-19 and rats tested at time intervals between 0.25 and 4 hours following a standard oral dose of 30 mg/kg. In the subsequent, more quantitative tests at least four doses of SKA-19 (n=8 per dose) were tested at the previously determined time of peak effect (TPE). Abolition of hindlimb tonic extension indicates the test compound's ability to inhibit MES-induced seizure spread. Tonic extension is considered abolished if the hind limbs are not fully extended at 180° with the body.

[2] = system: pentylenetetrazole-induced seizures; experiment: Subcutaneous Metrazol seizure test (scMET); format: in vivo; settings: mouse, in vivo
Procedure: A dose of subcutaneous pentylenetetrazole (Metrazole, MET) which induces convulsions in 97% of animals (CD97: 85 mg/kg mice or 56.4 mg/kg rats) was injected into a loose fold of skin at the neck. Animals were placed in isolation cages and observed for 30 min for the occurrence of clonic spasms persisting for at least 5 s.

MES-induced seizures [3] = experiment: Maximal electroshock (MES) seizure test, rats (ASP, methylcellulose suspension); format: in vivo
Procedure: as §1, §2

MES-induced seizures [4] = experiment: MES seizure test, CF-1 mice, compounds given i.p. as solution; format: in vivo
Procedure: MES assays were performed at the Department of Neurology at the University of California with CF-1 mice. This study was approved by the University of California, Davis, Animal Use and Care Committee and conducted in accordance with the guidelines of Animal Use and Care of the National Institutes of Health and the University of California. For these assays, stock solutions of SKA-19 (5 mg/ml) were prepared in 5% CremophorEL (Sigma-Aldrich, St. Louis, Mo., USA) and 95% saline, diluted further with saline, and SKA-19 was administered i.p. in a volume of 10 ml/kg body weight. Animals were subjected to a 0.2-s, 60-Hz electrical stimulus through corneal electrodes (5 mm diameter stainless steel balls). The electroshock unit was adjusted to deliver a constant current of 50 mA. Immediately before stimulation, the corneal electrodes were wetted with saline to provide good electrical contact. Animals failing to show tonic hindlimb extension were scored as protected (Kokate et al., 1994).
The mouse maximal electroshock (MES) and 6 Hz seizure models were used. Motor toxicity was assessed using a modification of the horizontal screen test. ED50 values in the seizure models and TD50 values in the toxicity test were determined by nonlinear fitting of dose-response curves. […] Drugs solutions were injected intraperitoneally 10 min prior to administration of the electrical stimulus in a volume of 10 ml/kg body weight.

[5] = system: 6-Hz psychomotor seizures; experiment: 6-Hz psychomotor seizure test (ASP); format: in vivo, mice; settings: Mus musculus, po, orally administered
Procedure: Seizures characterized by a minimal clonic phase followed by stereotyped automatistic behaviors (jaw chomping and whisker movement) were induced in mice by a low frequency (6 Hz), long-duration (3 s) stimulus. These seizures resemble automatistic behavior in patients with complex partial seizures. At varying times (0.25, 0.5, 1, 2, and 4 h) after drug treatment, individual mice (four at each time point) were challenged with sufficient current (32 or 44 mA at 6 Hz for 3 s) delivered through corneal electrodes to elicit a psychomotor seizure. Animals not displaying this behavior are considered protected.

CA1 pyramidal neurons = experiment: Hippocampal slice recordings; format: cell-based, mouse; settings: 10 μM, 1-s current injections (150 pA)
Procedure: Brain slice preparation was approved by the University of California, Irvine, Institutional Animal Care and Use Committee. Male C57BL/6 J mice (postnatal day 23) were anesthetized with halothane, decapitated, and brains transferred to an ice-cold, sucrose artificial cerebral spinal fluid (ACSF; Sigma-Aldrich). Hippocampal slices (300 μm) were prepared using a Leica VT1200S vibrating blade microtome (Leica Microsystems Inc., Buffalo Grove, Ill.). Slices were incubated at 33° C. in oxygenated (95% O2, 5% CO2) standard ACSF containing the following (mM) for at least 1 h before recordings: 126 NaCl, 2.5 KCl, 1.25 NaHPO4, 1.2 MgSO4, 10 glucose, 1.2 CaCl2, and 26 NaHCO3. Slices were submerged and continuously perfused at 2 ml/min with oxygenated ACSF at 33° C. during the current-clamp experiments. Voltage-clamp experiments were performed in the same ACSF but with 1 mM tetraethylammonium chloride (Sigma-Aldrich) and 0.5 μM tetrodotoxin (Sigma-Aldrich) added. Pyramidal CA1 neurons were visualized and identified with an upright microscope (Zeiss Axioskop Plus; Zeiss Jena, Germany) with infrared differential interference contrast optics. Recording pipettes (2-5 MΩ) were filled with intracellular solution containing (in mM): 126 K-gluconate; 4 KCl; 10 HEPES; 2 Mg-adenosine triphosphate; 0.3 Tris-guanosine triphosphate; 10 phosphocreatine, pH 7.20, 270-290 mOsm. In the current-clamp mode, depolarizing current pulses were applied from a membrane potential of −65 mV to evoke tonic firing activity. In the voltage-clamp mode, neurons were held at −55 mV and KCa currents elicited by 50-ms voltage steps to 10 mV, applied every 10 s. SKA-19 or NS309 were perfused for 10 min into the bath to allow for equilibrium. Recordings were performed in the whole-cell mode using a MultiClamp 700B amplifier (Molecular Devices), […] and sampled at 20 kHz with a Digidata 1322A digitizer (Molecular Devices). Data were acquired and analyzed with pClamp 10.2 software (Molecular Devices).

Row | Compound | ED50 (MES-induced seizures [1]) | activity in the scMET test [2] | protection from MES induced seizures, initial screen (MES-induced seizures [3]; 30 mg/kg i.p.) | ED50 (MES-induced seizures [3]; Rattus norvegicus, oral (SKA-19: 4 h time point), read-out: ED50, seizure protection in the MES test) | duration of protection (MES-induced seizures [4]; 10 mg/kg i.p. as solution) | duration of protective activity (MES-induced seizures [4]; MES test, 10 mg/kg i.p. as solution) | ED50 (MES-induced seizures [4]; Mus musculus, ip, 10 min, i.p. as solution, 10 min time point, read-out: ED50, seizure protection in the MES test) | onset of protection from seizures after application (MES-induced seizures [4]; i.p. as solution) | ED50 ([5]; 32 mA, 0.5-h time point) | ED50 ([5]; 44 mA, 1-h time point) | termination of firing during the ongoing current train (CA1 pyramidal neurons) | effect on AP firing frequency (CA1 pyramidal neurons; holding potential -65 mV)
1 | Nc1nc2ccc(OC(F)(F)F)cc2s1 [riluzole, 2-amino-6-(trifluoromethoxy)benzothiazole, reference compound] | 4.07 mg/kg | no significant activity | completely protected | 2.64 mg/kg | ≤ 45 min | < 1 h | 5.37 mg/kg | ≤ 5 min | 10.1 mg/kg | 11.5 mg/kg |  | 
2 | NS309 [reference compound] |  |  |  |  |  |  |  |  |  |  | did not terminate firing | reduced AP firing frequency

Source: patent US9675591B2, “Methods for treating seizure disorders and pain” (THE REGENTS OF THE UNIVERSITY OF CALIFORNIA, priority 2013, dated 2017)
